Experimental data as given in paper PMC5505648 (Bioorganic & medicinal chemistry, 2017).
One block for each molecule: values may come before it.

Legend:
Ester-to-amide = type: physicochemical; details: for Rearrangement of ester to amide product: polar, protic solvents / aqueous HPLC conditions; for Rearrangement of ester to amide in dosing vehicle: 50% DMSO in saline
[1] = Oral bioavailability / serum pharmacokinetics study in mice; type: in vivo; details: C57Bl/6, mouse; for clearance: iv
Hairless (Hr) gene = assay: Brain expression of Hairless; type: in vivo; details: mice, brain Hr expression ED50
[2] = in vivo

Molecule: 2-(methylamino)ethyl 2-(4-(4-hydroxy-3-methylbenzyl)-3,5-dimethylphenoxy)acetate [Compound 13]
Rearrangement of ester to amide product (Ester-to-amide): freely rearrange to their corresponding tertiary amides

Molecule: CNCC(C)OC(=O)COc1cc(C)c(Cc2ccc(O)c(C(C)C)c2)c(C)c1 (centres unmarked) [Compound 7, 1-(methylamino) propan-2-yl 2-(4-(4-hydroxy-3-isopropylbenzyl)-3,5-dimethylphenoxy) acetate]
Rearrangement of ester to amide product (Ester-to-amide): freely rearrange to their corresponding tertiary amides

Molecule: CNCC(OC(=O)COc1cc(C)c(Cc2ccc(O)c(C(C)C)c2)c(C)c1)C(C)C (centres unmarked) [Compound 12, 3-methyl-1-(methylamino)butan-2-yl 2-(4-(4-hydroxy-3-isopropylbenzyl)-3,5-dimethylphenoxy)acetate]
Rearrangement of ester to amide in dosing vehicle (Ester-to-amide): do not rearrange to amides | Rearrangement of ester to amide product (Ester-to-amide): did not display rearrangement to the amide product

The next lines start with results.

clearance ([1]; serum, 3.05 μmol/kg): 8 mL/min/kg
Molecule: Cc1cc(OCC(=O)O)cc(C)c1Cc1ccc(O)c(C(C)C)c1 [Compound 1, Sobetirome, reference compound]

Amount of sobetirome from cleavage of 3 in blood, oral vs intravenous dosing ([1]; in vivo): 2.4 fold | clearance ([1]; in vivo): 28 mL/min/kg | Species in chromatogram on re-sampling the same solution (Ester-to-amide; aqueous HPLC sample, approximately 30 minutes later): showed only the amide 3b | Fraction of ester converted to amide (Ester-to-amide; aqueous HPLC sample/run conditions, within 5 minutes of running): approximately 25% | Fold increase of sobetirome exposure (AUC) in brain vs equimolar sobetirome ([2]; male, C57Bl/6, mouse): ~ 2 fold | Fold reduction of parent drug exposure in heart vs equimolar sobetirome ([2]; male, C57Bl/6, mouse): ~ 3 fold | Fold reduction of parent drug exposure in kidney vs equimolar sobetirome ([2]; male, C57Bl/6, mouse): ~ 2 fold | Fold reduction of parent drug exposure in liver vs equimolar sobetirome ([2]; male, C57Bl/6, mouse): ~ 2 fold | Fold reduction of parent drug exposure in serum vs equimolar sobetirome ([2]; male, C57Bl/6, mouse): ~ 3.5 fold | Time of Cmax / Tmax in all tissues analyzed ([2]; mouse, ip): 15 to 30 min
Molecule: Cc1cc(OCC(=O)O[C@@H](C)CN)cc(C)c1Cc1ccc(O)c(C(C)C)c1 [Compound 3, (S)-1-aminopropan-2-yl 2-(4-(4-hydroxy-3-isopropylbenzyl)-3,5-dimethylphenoxy)acetate]
Fold increase in potency compared to sobetirome (Hairless (Hr) gene): ~2 fold

Rearrangement of ester to amide in dosing vehicle (Ester-to-amide): do not rearrange to amides
Molecule: Cc1cc(OCC(=O)OC(CN)C(C)C)cc(C)c1Cc1ccc(O)c(C(C)C)c1 (centres unmarked) [Compound 11, 1-amino-3-methylbutan-2-yl 2-(4-(4-hydroxy-3-isopropylbenzyl)-3,5-dimethylphenoxy)acetate]
Rearrangement of ester to amide product (Ester-to-amide): did not display rearrangement to the amide product

Rearrangement of ester to amide in dosing vehicle (Ester-to-amide): do not rearrange to amides
Molecule: Cc1cc(OCC(=O)OC2(C(F)(F)F)CNC2)cc(C)c1Cc1ccc(O)c(C(C)C)c1 [Compound 15]
Rearrangement of ester to amide product (Ester-to-amide): did not display rearrangement to the amide product
